From patent US8334293B2, “P70 S6 kinase inhibitor and EGFR inhibitor combination therapy” (Eli Lilly and Company, priority 2008, dated 2012)
Structures can show the parent of a compound that is named as a salt.

Tested on: A549 human non-small-cell lung carcinoma cells
Assay: In vivo efficacy, A549 xenograft tumor volume
Parameters: species or system mice
Details: for pairwise comparison of log tumor volume AUC with the combination group / statistical difference (p) of log tumor volume AUC from the vehicle: 2-way ANOVA; for Tumor volume Mean: oral once daily, 2.5 mg/kg p70 S6 kinase inhibitor and/or 20 mg/kg erlotinib hydrochloride, in mm^3 (unit assumed); for Signif. (difference relative to vehicle group): tumor volume, repeated measures ANOVA; for log tumor volume AUC: tumor volume vs. time, trapezoid rule, vehicle 3.91
Protocol: A549 human non-small-cell lung carcinoma cells (5×10^6) are subcutaneously implanted into the flank of female C.B-17 (Fox Chase SCID) Model #CB17SC-M mice in 0.2 mL of matrigel. Approximately 1 week post-implantation when the tumor size is approximately 100 mg, mice are randomized into groups of 10 and dosed orally once daily at 2.5 mg/kg 4-[4-[4-(4-fluoro-3-trifluoromethyl-phenyl)-1-methyl-1H-imidazol-2-yl]-piperidin-1-yl]-1H-pyrazolo[3,4-d]pyrimidine (the p70 S6 kinase inhibitor; formulated in 35% PEG300/10% HPBCD/10% PS80 in H2O; concentration of inhibitor is 0.31 mg/mL) or 20 mg/kg erlotinib hydrochloride (formulated in NaCMC Tween 80; concentration of erlotinib hydrochloride is 2.5 mg/mL) or in combination (2.5 mg/kg of the p70 S6 kinase inhibitor and 20 mg/kg of erlotinib hydrochloride). The vehicle group is given the 2 vehicles (NaCMC Tween 80 and 35% PEG300/10% HPBCD/10% PS80 in H2O) in combination (0.1 mL of each). Treatment is continued for 38 days. Tumor volumes are measured using standard technique twice weekly and reported. Tumor size and body weight are recorded and analyzed bi-weekly. Tumor volume is estimated by using the formula: v=l×w^2×0.536 where l=larger of measured diameter and w=smaller of perpendicular diameter. The analysis uses SAS software version 8.2 (SAS Institutes Inc, Cary, N.C.) to analyze the log tumor volume data using a repeated measures ANOVA model with a spatial power covariance structure. For each time point taken, treatment groups are compared to the vehicle control group. Tumor volumes are given as means±standard errors for each treatment group determined from a repeated measures ANOVA on each group. (SAS for Mixed Models, 2nd Ed., Littell et al., 2006, SAS Institutes Inc, Cary, N.C.).
The tumor volume vs. time data for each animal is used to calculate an area under the curve (AUC) using the trapezoid rule. These AUCs are analyzed by 2-way ANOVA using a log transformation to equalize variance across groups. The two factors are the dose of 4-[4-[4-(4-fluoro-3-trifluoromethyl-phenyl)-1-methyl-1H-imidazol-2-yl]-piperidin-1-yl]-1H-pyrazolo[3,4-d]pyrimidine and the dose of erlotinib hydrochloride. The interaction effect between the factors is used to test for departure from additivity. (An Introduction to Statistical Methods and Data Analysis, R. Lyman Ott, 1993, Duxbury Press, Belmont, Calif.)
The results of this study are shown in the table below. n (the number of mice) is 9 for all the data, except for the data from day 17 onwards in the vehicle group and the data from day 38 onwards in the erlotinib hydrochloride group when it is 8. The data in the column headed Signif. indicates whether the difference relative to the vehicle group is statistically significant: NS=Not Significant (p>0.05); *=0.01<p≦0.05; **=0.001<p≦0.01; ***=p≦0.001.

C#Cc1cccc(Nc2ncnc3cc(OCCOC)c(OCCOC)cc23)c1 [Erlotinib Hydrochloride, N-(3-ethynylphenyl)-6,7-bis-(2-methoxyethoxy)-4-quinazolinamine]
pairwise comparison of log tumor volume AUC with the combination group: significantly different from the combination group | statistical difference (p) of log tumor volume AUC from the vehicle: not significantly different from the vehicle | Tumor volume Mean (Day 7): 39.5 | Signif. (difference relative to vehicle group) (Day 7): NS (NS=Not Significant (p>0.05)) | Tumor volume Mean (Day 9): 51.5 | Signif. (difference relative to vehicle group) (Day 9): NS (NS=Not Significant (p>0.05)) | Tumor volume Mean (Day 14): 61.8 | Signif. (difference relative to vehicle group) (Day 14): NS (NS=Not Significant (p>0.05)) | Tumor volume Mean (Day 17): 74.8 | Signif. (difference relative to vehicle group) (Day 17): NS (NS=Not Significant (p>0.05)) | Tumor volume Mean (Day 21): 91.1 | Signif. (difference relative to vehicle group) (Day 21): NS (NS=Not Significant (p>0.05)) | Tumor volume Mean (Day 24): 101.6 | Signif. (difference relative to vehicle group) (Day 24): NS (NS=Not Significant (p>0.05)) | Tumor volume Mean (Day 28): 139.9 | Signif. (difference relative to vehicle group) (Day 28): NS (NS=Not Significant (p>0.05)) | Tumor volume Mean (Day 31): 141.8 | Signif. (difference relative to vehicle group) (Day 31): ** (**=0.001<p≦0.01) | Tumor volume Mean (Day 35): 196.7 | Signif. (difference relative to vehicle group) (Day 35): ** (**=0.001<p≦0.01) | Tumor volume Mean (Day 38): 259.4 | Signif. (difference relative to vehicle group) (Day 38): * (*=0.01<p≦0.05) | Tumor volume Mean (Day 42): 260.1 | Signif. (difference relative to vehicle group) (Day 42): ** (**=0.001<p≦0.01) | Tumor volume Mean (Day 44): 373.8 | Signif. (difference relative to vehicle group) (Day 44): * (*=0.01<p≦0.05) | log tumor volume AUC: 3.76

Cn1cc(-c2ccc(F)c(C(F)(F)F)c2)nc1C1CCN(c2ncnc3[nH]ncc23)CC1 [p70 S6 Kinase Inhibitor, 4-[4-[4-(4-fluoro-3-trifluoromethyl-phenyl)-1-methyl-1H-imidazol-2-yl]-piperidin-1-yl]-1H-pyrazolo[3,4-d]pyrimidine]
pairwise comparison of log tumor volume AUC with the combination group: significantly different from the combination group | statistical difference (p) of log tumor volume AUC from the vehicle: not significantly different from the vehicle | Tumor volume Mean (Day 7): 33.8 | Signif. (difference relative to vehicle group) (Day 7): NS (NS=Not Significant (p>0.05)) | Tumor volume Mean (Day 9): 51.9 | Signif. (difference relative to vehicle group) (Day 9): NS (NS=Not Significant (p>0.05)) | Tumor volume Mean (Day 14): 56.2 | Signif. (difference relative to vehicle group) (Day 14): NS (NS=Not Significant (p>0.05)) | Tumor volume Mean (Day 17): 75.9 | Signif. (difference relative to vehicle group) (Day 17): NS (NS=Not Significant (p>0.05)) | Tumor volume Mean (Day 21): 94.1 | Signif. (difference relative to vehicle group) (Day 21): NS (NS=Not Significant (p>0.05)) | Tumor volume Mean (Day 24): 113.5 | Signif. (difference relative to vehicle group) (Day 24): NS (NS=Not Significant (p>0.05)) | Tumor volume Mean (Day 28): 196.6 | Signif. (difference relative to vehicle group) (Day 28): NS (NS=Not Significant (p>0.05)) | Tumor volume Mean (Day 31): 231.3 | Signif. (difference relative to vehicle group) (Day 31): NS (NS=Not Significant (p>0.05)) | Tumor volume Mean (Day 35): 302.4 | Signif. (difference relative to vehicle group) (Day 35): NS (NS=Not Significant (p>0.05)) | Tumor volume Mean (Day 38): 353.3 | Signif. (difference relative to vehicle group) (Day 38): NS (NS=Not Significant (p>0.05)) | Tumor volume Mean (Day 42): 425.5 | Signif. (difference relative to vehicle group) (Day 42): NS (NS=Not Significant (p>0.05)) | Tumor volume Mean (Day 44): 530.9 | Signif. (difference relative to vehicle group) (Day 44): NS (NS=Not Significant (p>0.05)) | log tumor volume AUC: 3.85
